Measurements: patent US20240118280A1 (priority 2022, published 2024)
“Also recorded” adds a separate entry of the source.

Target: T1, human EGFR kinase (Homo sapiens, UniProt P00533)
T1 construct: The EGFR kinase domain is incubated with Ibrutinib-yne or a DMSO control at 37° C. for 1 hour; made in house
Test: Activity-based protein fingerprinting: covalent labelling of EGFR kinase by chemical probe (PAGE, fluorescent imaging, LC-MS)
Format: binding
Procedure: The EGFR kinase domain is incubated with Ibrutinib-yne or a DMSO control at 37° C. for 1 hour. The EGFR kinase domain bound to Ibrutinib-yne is exposed to cysteine reduction and capping using TCEP and chloroacetamide at 37° C. for 1 hour. The product is desalted with a 7 kDa zeba column and exposed to proteolytic digestion by trypsin at 37° C. for 16 hours. The product is further conjugated with bis-biotin-DNA-SS-azide at room temperature for 30 minutes and finally exposed to DTT at 65° C. for 10 minutes.
FIGS. 5A-5C show LC-MS plots of DMSO control (FIG. 5A), Ibrutinib-yne (FIG. 5B), and Ibrutinib-yne with a DNA control molecule and DTT (FIG. 5C). The blue box represents unmodified peptide, the green box represents peptide bound to Ibrutinib-yne, and the red box represents peptide-Ibrutinib-yne-DNA adduct following disulfide reduction.
Using the steps of Example 1, EGFR kinase was detected using activity-based protein fingerprinting. The commercially available drug analog Ibrutinib-yne, which binds to the catalytic cysteine of EGFR comprises an electrophilic warhead and an alkyne moiety for the CLICK handle processing step. Purified human EGFR kinase was generated (FIG. 2A) and exposed to Ibrutinib-yne (FIG. 2B). […] The target peptide detected by this protocol LLGIC(Alk)[…]) (SEQ ID NO:1) was detected by LC-MS (FIGS. 5A-5C).

Substance: Ibrutinib-yne
- LC-MS detection of target peptide LLGIC(Alk)[…] (SEQ ID NO:1) (after TCEP/chloroacetamide capping and trypsin digestion, vs DMSO control): detected only in its modified state
- probe-EGFR kinase complex observed by Coomassie Blue staining and fluorescent imaging (AF647-azide) (probe or DMSO control incubated with EGFR at 37° C. for 1 hour, PAGE): desired complex was observed; also recorded: only the protein bearing Ibrutinib-yne reacted with AF647-azide
